Test results from ChEMBL document CHEMBL3991601, “The target landscape of clinical kinase drugs” (Science, 2017).
The source made the active and inactive calls. For most assays here, no stated cut-off is given here; in the data, actives have a measured Kd and inactives only a lower limit.

Columns and labels:
[1] = biological target: Protein-tyrosine kinase 6 (Homo sapiens, UniProt Q13882)
[2] = biological target: Tyrosine-protein kinase Yes (Homo sapiens, UniProt P07947)
[3] = biological target: T1, Ferrochelatase, mitochondrial (Homo sapiens, UniProt P22830)
T1 sequence (P22830 whole entry): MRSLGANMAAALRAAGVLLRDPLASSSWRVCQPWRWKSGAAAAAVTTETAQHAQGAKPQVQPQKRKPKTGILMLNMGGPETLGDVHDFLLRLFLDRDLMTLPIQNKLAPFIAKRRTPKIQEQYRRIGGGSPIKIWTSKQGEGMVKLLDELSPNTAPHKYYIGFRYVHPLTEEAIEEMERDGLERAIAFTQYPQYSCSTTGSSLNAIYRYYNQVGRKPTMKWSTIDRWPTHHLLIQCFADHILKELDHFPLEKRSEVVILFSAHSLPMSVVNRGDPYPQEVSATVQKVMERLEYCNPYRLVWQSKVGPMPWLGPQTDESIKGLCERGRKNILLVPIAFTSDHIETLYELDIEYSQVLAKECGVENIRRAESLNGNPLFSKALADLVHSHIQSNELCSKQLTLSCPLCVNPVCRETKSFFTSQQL

[4] = biological target: Platelet-derived growth factor receptor beta (Homo sapiens, UniProt P09619)
Ephrin type-B receptor 6 = biological target: T2, Ephrin type-B receptor 6 (Homo sapiens, UniProt O15197)
T2 sequence (O15197 whole entry): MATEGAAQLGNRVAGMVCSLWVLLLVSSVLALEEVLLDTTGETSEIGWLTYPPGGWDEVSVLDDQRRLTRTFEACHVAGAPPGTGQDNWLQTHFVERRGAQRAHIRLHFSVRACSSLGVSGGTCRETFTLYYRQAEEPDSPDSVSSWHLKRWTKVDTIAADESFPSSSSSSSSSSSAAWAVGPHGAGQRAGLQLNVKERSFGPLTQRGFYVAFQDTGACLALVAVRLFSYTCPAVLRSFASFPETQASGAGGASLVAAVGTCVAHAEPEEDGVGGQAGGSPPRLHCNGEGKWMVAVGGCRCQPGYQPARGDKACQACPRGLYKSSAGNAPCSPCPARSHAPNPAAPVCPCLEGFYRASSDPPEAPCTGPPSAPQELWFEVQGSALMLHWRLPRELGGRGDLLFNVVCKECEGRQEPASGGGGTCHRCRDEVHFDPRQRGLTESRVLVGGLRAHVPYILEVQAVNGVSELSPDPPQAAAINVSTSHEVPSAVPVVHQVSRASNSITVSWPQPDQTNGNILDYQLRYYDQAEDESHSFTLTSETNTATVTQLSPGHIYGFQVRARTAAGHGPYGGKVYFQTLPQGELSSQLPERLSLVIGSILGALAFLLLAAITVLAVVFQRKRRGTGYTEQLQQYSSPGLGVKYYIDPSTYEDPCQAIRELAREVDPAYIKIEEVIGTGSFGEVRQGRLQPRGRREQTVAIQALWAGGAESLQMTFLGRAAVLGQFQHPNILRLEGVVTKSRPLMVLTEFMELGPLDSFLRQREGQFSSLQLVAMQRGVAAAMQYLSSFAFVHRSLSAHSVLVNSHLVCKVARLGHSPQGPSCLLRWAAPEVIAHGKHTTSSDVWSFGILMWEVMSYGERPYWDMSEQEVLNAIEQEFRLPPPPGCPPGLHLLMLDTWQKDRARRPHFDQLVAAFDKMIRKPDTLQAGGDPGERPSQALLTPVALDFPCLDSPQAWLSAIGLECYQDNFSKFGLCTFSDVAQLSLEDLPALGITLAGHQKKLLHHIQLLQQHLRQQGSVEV

[5] = biological target: T3, Calcium/calmodulin-dependent protein kinase type IV (Homo sapiens, UniProt Q16566)
T3 sequence (Q16566 whole entry): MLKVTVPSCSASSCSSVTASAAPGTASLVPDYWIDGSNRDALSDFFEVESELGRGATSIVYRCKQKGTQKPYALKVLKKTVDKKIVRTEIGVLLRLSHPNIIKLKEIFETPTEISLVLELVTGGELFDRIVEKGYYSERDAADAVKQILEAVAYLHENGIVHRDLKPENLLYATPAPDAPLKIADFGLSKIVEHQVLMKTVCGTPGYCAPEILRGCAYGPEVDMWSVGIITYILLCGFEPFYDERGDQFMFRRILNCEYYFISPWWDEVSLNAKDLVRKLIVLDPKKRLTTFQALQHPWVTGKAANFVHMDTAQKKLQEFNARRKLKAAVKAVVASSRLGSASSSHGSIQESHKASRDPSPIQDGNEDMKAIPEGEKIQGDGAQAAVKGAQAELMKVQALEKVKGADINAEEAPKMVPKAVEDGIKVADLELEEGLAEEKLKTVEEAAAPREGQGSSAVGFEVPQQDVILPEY

[6] = biological target: T4, ATP-dependent RNA helicase DDX42 (Homo sapiens, UniProt Q86XP3)
T4 sequence (Q86XP3 whole entry): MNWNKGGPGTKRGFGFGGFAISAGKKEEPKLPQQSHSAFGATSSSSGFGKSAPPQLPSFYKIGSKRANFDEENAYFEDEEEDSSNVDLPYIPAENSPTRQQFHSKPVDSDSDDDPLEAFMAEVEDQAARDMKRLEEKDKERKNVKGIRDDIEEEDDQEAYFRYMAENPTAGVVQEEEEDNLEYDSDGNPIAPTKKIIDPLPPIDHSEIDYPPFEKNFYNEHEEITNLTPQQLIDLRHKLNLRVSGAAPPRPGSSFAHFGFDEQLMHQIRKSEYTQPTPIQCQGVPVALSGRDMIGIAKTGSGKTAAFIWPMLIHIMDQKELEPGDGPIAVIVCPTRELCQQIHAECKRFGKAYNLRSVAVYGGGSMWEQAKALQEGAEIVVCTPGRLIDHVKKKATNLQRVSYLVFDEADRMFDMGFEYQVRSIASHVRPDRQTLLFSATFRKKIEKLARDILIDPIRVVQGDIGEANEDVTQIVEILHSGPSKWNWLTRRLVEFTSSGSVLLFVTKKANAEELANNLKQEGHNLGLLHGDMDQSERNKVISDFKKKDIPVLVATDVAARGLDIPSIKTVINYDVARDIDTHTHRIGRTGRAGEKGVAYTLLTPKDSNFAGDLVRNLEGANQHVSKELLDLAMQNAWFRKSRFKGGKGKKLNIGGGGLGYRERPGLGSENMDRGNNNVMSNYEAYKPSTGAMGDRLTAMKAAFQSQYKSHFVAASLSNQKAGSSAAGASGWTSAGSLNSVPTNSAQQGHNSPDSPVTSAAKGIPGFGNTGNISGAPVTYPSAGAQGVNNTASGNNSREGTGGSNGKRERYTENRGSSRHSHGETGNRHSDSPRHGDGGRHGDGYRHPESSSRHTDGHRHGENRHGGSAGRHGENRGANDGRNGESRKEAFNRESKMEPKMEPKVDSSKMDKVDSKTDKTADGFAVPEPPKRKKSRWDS

Platelet-derived growth factor receptor beta, sequence (P09619 whole entry): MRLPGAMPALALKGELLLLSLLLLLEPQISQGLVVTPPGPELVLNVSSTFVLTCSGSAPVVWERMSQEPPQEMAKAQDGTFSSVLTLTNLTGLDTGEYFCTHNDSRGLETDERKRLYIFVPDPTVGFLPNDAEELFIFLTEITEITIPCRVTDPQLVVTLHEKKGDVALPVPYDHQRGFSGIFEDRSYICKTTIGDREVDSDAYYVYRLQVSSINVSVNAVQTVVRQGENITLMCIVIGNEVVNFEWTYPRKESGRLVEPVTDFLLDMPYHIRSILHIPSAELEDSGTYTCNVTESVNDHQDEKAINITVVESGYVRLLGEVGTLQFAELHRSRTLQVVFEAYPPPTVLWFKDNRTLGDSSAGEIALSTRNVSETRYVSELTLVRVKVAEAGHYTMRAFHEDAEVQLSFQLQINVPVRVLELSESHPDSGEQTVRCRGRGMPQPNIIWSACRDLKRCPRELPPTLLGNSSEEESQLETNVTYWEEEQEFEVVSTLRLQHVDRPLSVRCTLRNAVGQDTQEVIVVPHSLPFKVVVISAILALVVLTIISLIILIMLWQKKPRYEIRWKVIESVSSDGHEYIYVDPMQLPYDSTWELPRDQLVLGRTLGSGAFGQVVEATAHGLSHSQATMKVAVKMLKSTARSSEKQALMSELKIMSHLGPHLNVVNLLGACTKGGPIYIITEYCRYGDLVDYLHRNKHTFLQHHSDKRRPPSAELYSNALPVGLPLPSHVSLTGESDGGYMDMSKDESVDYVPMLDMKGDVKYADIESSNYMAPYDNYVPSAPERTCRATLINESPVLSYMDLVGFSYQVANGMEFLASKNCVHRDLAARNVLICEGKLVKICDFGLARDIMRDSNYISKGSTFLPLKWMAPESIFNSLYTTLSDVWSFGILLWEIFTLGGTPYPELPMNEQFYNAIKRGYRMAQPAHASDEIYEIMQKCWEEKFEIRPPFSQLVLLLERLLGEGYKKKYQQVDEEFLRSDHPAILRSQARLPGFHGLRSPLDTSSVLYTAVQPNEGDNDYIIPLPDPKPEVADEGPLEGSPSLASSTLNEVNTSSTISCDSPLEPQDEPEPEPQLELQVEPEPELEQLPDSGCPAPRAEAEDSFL
Tyrosine-protein kinase Yes, sequence (P07947 whole entry): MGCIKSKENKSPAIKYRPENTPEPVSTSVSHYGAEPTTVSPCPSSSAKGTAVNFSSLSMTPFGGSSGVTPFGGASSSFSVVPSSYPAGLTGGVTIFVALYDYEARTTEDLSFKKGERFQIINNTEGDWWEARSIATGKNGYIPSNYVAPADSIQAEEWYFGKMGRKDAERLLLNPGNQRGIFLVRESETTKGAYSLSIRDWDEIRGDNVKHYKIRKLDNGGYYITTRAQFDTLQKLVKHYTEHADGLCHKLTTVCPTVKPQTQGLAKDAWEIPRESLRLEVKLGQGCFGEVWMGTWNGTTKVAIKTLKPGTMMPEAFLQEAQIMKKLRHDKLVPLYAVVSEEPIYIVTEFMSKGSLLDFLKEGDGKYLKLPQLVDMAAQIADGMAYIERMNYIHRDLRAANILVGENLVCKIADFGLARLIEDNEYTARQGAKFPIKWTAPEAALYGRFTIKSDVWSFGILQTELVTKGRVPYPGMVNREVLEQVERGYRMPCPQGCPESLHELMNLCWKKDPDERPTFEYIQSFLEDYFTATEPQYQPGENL
Protein-tyrosine kinase 6, sequence (Q13882 whole entry): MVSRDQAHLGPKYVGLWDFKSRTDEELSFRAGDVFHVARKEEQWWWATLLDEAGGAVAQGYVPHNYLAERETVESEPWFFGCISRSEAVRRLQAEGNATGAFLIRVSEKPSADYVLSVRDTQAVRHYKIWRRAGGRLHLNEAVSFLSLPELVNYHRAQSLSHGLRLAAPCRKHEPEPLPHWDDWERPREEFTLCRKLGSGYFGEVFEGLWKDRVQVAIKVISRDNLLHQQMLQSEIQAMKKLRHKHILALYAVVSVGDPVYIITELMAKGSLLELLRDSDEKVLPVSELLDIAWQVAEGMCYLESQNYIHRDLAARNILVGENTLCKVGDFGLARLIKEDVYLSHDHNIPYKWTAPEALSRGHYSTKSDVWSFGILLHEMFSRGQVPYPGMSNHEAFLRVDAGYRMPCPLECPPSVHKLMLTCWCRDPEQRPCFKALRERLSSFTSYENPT

| Kd [1] | Kd [2] | Kd [3] | Kd [4] | Kd (Ephrin type-B receptor 6) | Kd [5] | Kd [6] | Compound |
| --- | --- | --- | --- | --- | --- | --- | --- |
| > 30 µM (inactive) | > 30 µM (inactive) | > 30 µM (inactive) | > 30 µM (inactive) | > 30 µM (inactive) | > 30 µM (inactive) | > 30 µM (inactive) | O=c1sn(-c2cccc3ccccc23)c(=O)n1Cc1ccccc1 [TIDEGLUSIB] |
| > 30 µM (inactive) | > 30 µM (inactive) | 12.3 µM | > 30 µM (inactive) | > 30 µM (inactive) | > 30 µM (inactive) | > 30 µM (inactive) | CN(C)C(=O)c1cc2cnc(Nc3ccc(N4CCNCC4)cn3)nc2n1C1CCCC1 [RIBOCICLIB] |
| > 30 µM (inactive) | > 30 µM (inactive) | > 30 µM (inactive) | > 30 µM (inactive) | > 30 µM (inactive) | > 30 µM (inactive) | > 30 µM (inactive) | CC[C@H](Nc1ncnc2[nH]cnc12)c1nc2cccc(F)c2c(=O)n1-c1ccccc1 [IDELALISIB] |
| > 30 µM (inactive) | > 30 µM (inactive) | > 30 µM (inactive) | > 30 µM (inactive) | > 30 µM (inactive) | > 30 µM (inactive) | > 30 µM (inactive) | COC(=O)N[C@@H](C)CNc1nccc(-c2cn(C(C)C)nc2-c2cc(Cl)cc(NS(C)(=O)=O)c2F)n1 [ENCORAFENIB] |
| > 30 µM (inactive) | > 30 µM (inactive) | 67.9 µM (active) | 2.67 µM (active) | > 30 µM (inactive) | > 30 µM (inactive) | > 30 µM (inactive) | C1=C/COCc2cc(ccc2OCCN2CCCC2)Nc2nccc(n2)-c2cccc(c2)COC/1 [PACRITINIB] |
| > 30 µM (inactive) | > 30 µM (inactive) | > 30 µM (inactive) | > 30 µM (inactive) | > 30 µM (inactive) | > 30 µM (inactive) | > 30 µM (inactive) | Cn1cc(-c2ccc3nnc(C(F)(F)c4ccc5ncccc5c4)n3n2)cn1 [JNJ-38877605] |
| 2.2 µM (active) | > 30 µM (inactive) | > 30 µM (inactive) | > 30 µM (inactive) | > 30 µM (inactive) | > 30 µM (inactive) | > 30 µM (inactive) | CNC(=O)CN1CCC(Oc2cc3c(Nc4cccc(Cl)c4F)ncnc3cc2OC)CC1 [SAPITINIB] |
| > 30 µM (inactive) | > 30 µM (inactive) | > 30 µM (inactive) | > 30 µM (inactive) | > 30 µM (inactive) | > 30 µM (inactive) | > 30 µM (inactive) | Cn1ncc(Cl)c1-c1cc(C(=O)N[C@H](CN)Cc2cccc(F)c2)sc1Cl [AFURESERTIB] |
| > 30 µM (inactive) | > 30 µM (inactive) | > 30 µM (inactive) | > 30 µM (inactive) | > 30 µM (inactive) | > 30 µM (inactive) | > 30 µM (inactive) | CC[C@@H]1C(=O)N(C)c2cnc(Nc3ccc(C(=O)N[C@H]4CC[C@H](N5CCN(CC6CC6)CC5)CC4)cc3OC)nc2N1C(C)C [VOLASERTIB] |
| > 30 µM (inactive) | > 30 µM (inactive) | > 30 µM (inactive) | > 30 µM (inactive) | > 30 µM (inactive) | > 30 µM (inactive) | > 30 µM (inactive) | CO[C@H]1C[C@@H]2CC[C@@H](C)[C@@](O)(O2)C(=O)C(=O)N2CCCC[C@H]2C(=O)O[C@H]([C@H](C)C[C@@H]2CC[C@@H](OCCO)[C@H](OC)C2)CC(=O)[C@H](C)/C=C(\C)[C@@H](O)[C@@H](OC)C(=O)[C@H](C)C[C@H](C)/C=C/C=C/C=C/1C [EVEROLIMUS] |
| > 30 µM (inactive) | > 30 µM (inactive) | > 30 µM (inactive) | > 30 µM (inactive) | > 30 µM (inactive) | > 30 µM (inactive) | > 30 µM (inactive) | Cn1cc(-c2ccc(F)c(C(F)(F)F)c2)nc1C1CCN(c2ncnc3[nH]ncc23)CC1 [LY-2584702] |
| 0.787 µM (active) | > 30 µM (inactive) | > 30 µM (inactive) | 2.41 µM (active) | > 30 µM (inactive) | > 30 µM (inactive) | > 30 µM (inactive) | COc1cc2nccc(Oc3ccc(NC(=O)Nc4cc(C)on4)c(Cl)c3)c2cc1OC [TIVOZANIB] |
| > 30 µM (inactive) | > 30 µM (inactive) | > 30 µM (inactive) | > 30 µM (inactive) | > 30 µM (inactive) | > 30 µM (inactive) | > 30 µM (inactive) | CC(C)Nc1cc(-c2c[nH]c(C(=O)N[C@H](CO)c3cccc(Cl)c3)c2)c(Cl)cn1 [ULIXERTINIB] |

| Compound | Kd [1] | Kd [2] | Kd [3] | Kd [4] | Kd (Ephrin type-B receptor 6) | Kd [5] | Kd [6] |
| --- | --- | --- | --- | --- | --- | --- | --- |
| Cc1cc(-c2cc(O)ccc2Cl)cc2nnc(Nc3ccc(OCCN4CCCC4)cc3)nc12 | > 30 µM (inactive) | 0.001 µM (active) | > 30 µM (inactive) | > 30 µM (inactive) | 0.0006 µM (active) | > 30 µM (inactive) | > 30 µM (inactive) |
| O=C(c1ccc(F)c(F)c1Nc1ccc(I)cc1F)N1CC(O)([C@@H]2CCCCN2)C1 [COBIMETINIB] | > 30 µM (inactive) | > 30 µM (inactive) | > 30 µM (inactive) | > 30 µM (inactive) | > 30 µM (inactive) | > 30 µM (inactive) | > 30 µM (inactive) |
| CN1CCC(COc2cnc(-c3cccc(Cn4nc(-c5cccc(C#N)c5)ccc4=O)c3)nc2)CC1 [TEPOTINIB] | > 30 µM (inactive) | > 30 µM (inactive) | > 30 µM (inactive) | > 30 µM (inactive) | > 30 µM (inactive) | > 30 µM (inactive) | > 30 µM (inactive) |
